Measured values published in PMC9783898 (Pharmaceutics, 2022).
Read-outs that look alike come from different tables or passages of the source.

What was measured:
[1] = test system: MES-SA (Human uterine sarcoma); experiment: Cytotoxicity assay (MTT, 48 h) on MES-SA; format: cell-based
Experimental: Cells were cultured in modified McCoy’s 5a medium supplemented with 10% fetal bovine serum. […] After reaching approx. 90% confluence, cells were detached using 0.05% trypsin/EDTA solution and counted. Then, cells were plated at optimal density for the logarithmic phase of growth. MES-SA cells were seeded onto 96-well plate at a concentration of 3000 cells per well. Blank control wells were left cell-free for background absorption measurement. […] Control cells were incubated with media without compounds. MTT assays were performed after 48 h incubation. Briefly, culture medium was removed from each well and replaced with fresh medium with MTT (0.2 mg/mL). […] The plate was further shaken for 15 min at room temperature, and the optical density at 540 nm of the wells was measured using multichannel spectrophotometer (Thermo Scientific Multiskan EX, Waltham, MA, USA). The percent of alive cells were calculated according to the formula 100∙T/C, where T is the optical density of a test well after 48 h exposure to compound, and C is control cells optical density after 48 h. All compounds were tested in three independent experiments. The IC50 values were calculated using Graph Pad Prism (GraphPad, Inc., La Jolla, CA, USA).

[2] = test system: MCF-7 (human adenocarcinoma); experiment: Cytotoxicity assay (MTT, 48 h) on MCF-7; format: cell-based
[3] = test system: MES-SA/Dx-5 (doxorubicin resistant human uterine sarcoma); experiment: cells; conditions: for IC20: MES-SA/Dx5, read-out: MES-SA/Dx5 IC20
[4] = test system: H9C2 (rat cardiomyocytes); experiment: Cytotoxicity assay (MTT, 48 h) on H9C2; format: cell-based; conditions: read-out: H9C2, IC50
[5] = test system: HCC1937 (human breast carcinoma); experiment: Cytotoxicity assay (MTT, 48 h) on HCC1937; format: cell-based
MES-SA/Dx-5 cells [6] = experiment: Reversal of doxorubicin resistance (doxorubicin cytotoxicity in presence of compound at IC20); format: cell-based, human; conditions: IC50 of DOX/IC50 of DOX with a conjugate at IC20, MES-SA/Dx-5
Experimental: To calculate reversal fold (RF) values, doxorubicin cytotoxicity was determined in the presence of the tested compounds at their corresponding IC20 concentration as described above. RF values were calculated as IC50 of DOX/IC50 of DOX in the presence of a tested compound.
Next, the cytotoxicity of 5a–c was evaluated on a doxorubicin resistant human uterus sarcoma cell line (MES-SA/Dx-5) using the MTT assay (Table 2). […] To explore the potential of the novel compounds to reverse doxorubicin resistance, cytotoxicity of doxorubicin was evaluated in the presence of 5a–c at their corresponding IC20 concentrations.

PARP1 = PARP1 (Homo sapiens, UniProt P09874); experiment: PARP1 inhibition activity; format: biochemical
[7] = test system: MES-SA/Dx-5 (doxorubicin resistant human uterine sarcoma); conditions: MES-SA/Dx-5 vs MES-SA
MES-SA/Dx-5 cells [8] = test system: MES-SA/Dx-5 cells; set-up: method as in doi:10.1039/D2NJ00340F; conditions: IC50 of DOX/IC50 of DOX with compound at IC20, MES-SA/Dx-5; cited from earlier work
[9] = test system: MES-SA/Dx-5 (doxorubicin resistant human uterine sarcoma); set-up: method as in doi:10.1039/D2NJ00340F; conditions: MTT, cited from earlier work
[10] = Homo sapiens, MES-SA, read-out: MES-SA, IC50, MTT, 48 h
[11] = Homo sapiens, MCF7, 48 h, read-out: MCF-7, IC50, MTT, 48 h
[12] = MES-SA/Dx5, read-out: MES-SA/Dx5 IC50
[13] = Homo sapiens, HCC1937, 48 h, read-out: HCC1937, IC50, MTT, 48 h, BRCA1-deficient breast carcinoma
[14] = PARP1 inhibiting activity, Table 1, read-out: PARP1

PARP1, sequence (P09874 whole entry, species assumed): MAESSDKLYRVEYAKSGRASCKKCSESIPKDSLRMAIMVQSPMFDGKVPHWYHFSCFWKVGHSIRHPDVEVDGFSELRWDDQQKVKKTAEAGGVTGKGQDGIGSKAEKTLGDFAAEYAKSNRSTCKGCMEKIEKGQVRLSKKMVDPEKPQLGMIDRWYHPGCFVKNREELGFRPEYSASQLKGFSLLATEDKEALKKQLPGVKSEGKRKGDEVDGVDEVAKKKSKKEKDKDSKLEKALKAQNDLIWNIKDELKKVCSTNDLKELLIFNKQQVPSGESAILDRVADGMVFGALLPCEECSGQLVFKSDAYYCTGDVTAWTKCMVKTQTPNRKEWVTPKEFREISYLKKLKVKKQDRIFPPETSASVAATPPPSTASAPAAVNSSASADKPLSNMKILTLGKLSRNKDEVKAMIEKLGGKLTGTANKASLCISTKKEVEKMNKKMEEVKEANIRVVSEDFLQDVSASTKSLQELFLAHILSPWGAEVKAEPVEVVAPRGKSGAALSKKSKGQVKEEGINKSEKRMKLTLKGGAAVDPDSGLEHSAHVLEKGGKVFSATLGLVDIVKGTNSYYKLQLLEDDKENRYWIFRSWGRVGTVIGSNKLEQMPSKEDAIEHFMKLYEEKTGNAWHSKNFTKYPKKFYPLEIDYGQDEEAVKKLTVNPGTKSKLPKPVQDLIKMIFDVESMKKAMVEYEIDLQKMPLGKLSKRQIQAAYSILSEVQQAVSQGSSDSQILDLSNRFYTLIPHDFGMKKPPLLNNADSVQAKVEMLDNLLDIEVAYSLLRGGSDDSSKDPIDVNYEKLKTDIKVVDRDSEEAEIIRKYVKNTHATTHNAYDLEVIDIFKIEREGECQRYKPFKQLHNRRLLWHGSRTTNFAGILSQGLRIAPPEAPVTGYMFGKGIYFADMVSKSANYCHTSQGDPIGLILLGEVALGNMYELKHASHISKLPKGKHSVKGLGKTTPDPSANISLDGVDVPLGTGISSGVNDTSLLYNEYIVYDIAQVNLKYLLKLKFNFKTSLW

| SMILES | IC50 [1, 10] [µM] | IC50 [2, 11] [µM] | IC20 [3] [µM] | IC50 [3, 12] [µM] | IC50 ([4]; H9c2, 48 h) [µM] | IC50 [5, 13] [µM] | RF (reversal fold) (MES-SA/Dx-5 cells [6]) | IC50 (PARP1; [14]) [µM] | melting point [°C] | further results |
| --- | --- | --- | --- | --- | --- | --- | --- | --- | --- | --- |
| Cn1c(=O)c2c(Br)c(CN3CCCN(C(=O)CCCCCCCCCCC(=O)N4CCN(C(=O)c5cc(Cc6n[nH]c(=O)c7ccccc67)ccc5F)CC4)CC3)[se]c2c2ccccc21 [Compound 5c, 1-(4-((3-Bromo-5-methyl-4-oxo-4,5-dihydroselenopheno[3,2-c]quinolin-2-yl)methyl)-1,4-diazepan-1-yl)-12-(4-(2-fluoro-5-((4-oxo-3,4-dihydrophthalazin-1-yl)methyl)benzoyl)piperazin-1-yl)dodecane-1,12-dione] | > 100 | > 100 | 0.549 ± 0.074 | 26.2 ± 0.03 | > 300 | > 100 | 3.36 ± 0.11 | 0.147 ± 0.0022 |  | IC50 (PARP1; read-out: PARP1 IC50): 0.147 µM |
| Cn1c(=O)c2c(Br)c(CN3CCCN(C(=O)CCC(=O)N4CCN(C(=O)c5cc(Cc6n[nH]c(=O)c7ccccc67)ccc5F)CC4)CC3)[se]c2c2ccccc21 [Compound 5a, 1-(4-((3-Bromo-5-methyl-4-oxo-4,5-dihydroselenopheno[3,2-c]quinolin-2-yl)methyl)-1,4-diazepan-1-yl)-4-(4-(2-fluoro-5-((4-oxo-3,4-dihydrophthalazin-1-yl)methyl)benzoyl)piperazin-1-yl)butane-1,4-dione] | 7.1 ± 2.7 | > 100 | 0.48 ± 0.094 | 21.1 ± 3.94 | > 300 | 3.1 ± 1 | 0.84 ± 0.16 | 0.0046 ± 0.0005 | > 200 |  |
| Cn1c(=O)c2c(Br)c(CN3CCCN(C(=O)CCCCCCCCC(=O)N4CCN(C(=O)c5cc(Cc6n[nH]c(=O)c7ccccc67)ccc5F)CC4)CC3)[se]c2c2ccccc21 [Compound 5b, 1-(4-((3-Bromo-5-methyl-4-oxo-4,5-dihydroselenopheno[3,2-c]quinolin-2-yl)methyl)-1,4-diazepan-1-yl)-10-(4-(2-fluoro-5-((4-oxo-3,4-dihydrophthalazin-1-yl)methyl)benzoyl)piperazin-1-yl)decane-1,10-dione] | 32.5 ± 1.6 | > 100 | 0.86 ± 0.096 | 1.67 ± 0.03 | > 300 | > 100 | 3.42 ± 0.12 | 0.013 ± 0.0018 | 172 to 174 | times more cytotoxic to MES-SA/Dx-5 than regular MES-SA cells [7]: ~20 times |
| O=C(c1cc(Cc2n[nH]c(=O)c3ccccc23)ccc1F)N1CCN(C(=O)C2CC2)CC1 [Olaparib, reference compound] |  |  |  | > 100 |  |  |  |  |  | IC50 ([1]; Homo sapiens, MES-SA, read-out: MES-SA, IC50): > 100 µM; IC50 ([2]; Homo sapiens, MCF7, 48 h, read-out: MCF-7, IC50): > 100 µM; IC50 ([5]; Homo sapiens, HCC1937, 48 h, read-out: HCC1937, IC50): > 100 µM |
| Cn1c(=O)c2c(Br)c(CN3CCCNCC3)[se]c2c2ccccc21 [Compound 1] | 17 to 21 | 17 to 21 |  |  | > 300 | 17 to 21 |  | > 1 |  | RF (reversal fold) (MES-SA/Dx-5 cells [8]): 4.72 ± 0.63; IC20 ([9]; read-out: MES-SA/Dx5 IC20): 7.96 ± 3.03 µM; IC50 ([9]; read-out: MES-SA/Dx5 IC50): 21.1 ± 2.49 µM; IC50 ([1]; read-out: MES-SA, IC50, MTT): 21 ± 3.9 µM; IC50 ([2]; read-out: MCF-7, IC50, MTT, 48 h): 17.1 ± 1.9 µM; IC50 ([5]; read-out: HCC1937, IC50, MTT, 48 h, BRCA1-deficient breast carcinoma): 19.9 ± 4.8 µM; PARP1 activity (PARP1; at 1 µM concentration): did not decrease PARP1 activity |
| COc1cccc2c1C(=O)c1c(O)c3c(c(O)c1C2=O)C[C@@](O)(C(=O)CO)C[C@@H]3O[C@H]1C[C@H](N)[C@H](O)[C@H](C)O1 [Doxorubicin, reference compound] |  |  |  |  |  |  |  |  |  | IC50 ([1]; Homo sapiens, MES-SA, MTT, read-out: MES-SA, IC50): 0.084 ± 0.011 µM; IC50 ([2]; Homo sapiens, MCF7, 48 h, MTT, 48 h, read-out: MCF-7, IC50): 0.47 ± 0.14 µM; IC50 ([3]; MES-SA/Dx5, read-out: Doxorubicin IC50): 2.4 ± 0.41 µM; IC50 ([4]; H9c2, MTT, 48 h): 3.9 ± 0.6 µM; IC50 ([5]; Homo sapiens, HCC1937, 48 h, MTT, 48 h, BRCA1-deficient breast carcinoma, read-out: HCC1937, IC50): 1.08 ± 0.1 µM |
